Assays:
Format in all cases: functional
[1] = system: MDA-MB-468; experiment: Cytotoxicity against human MDA-MB-468 cells assessed as cellular growth at 10 uM by SRB assay
[2] = system: T47D; experiment: Cytotoxicity against human T47D cells assessed as cellular growth at 10 uM by SRB assay
[3] = system: BT-549; experiment: Cytotoxicity against human BT549 cells assessed as cellular growth at 10 uM by SRB assay
[4] = system: Hs-578T; experiment: Cytotoxicity against human Hs578T cells assessed as cellular growth at 10 uM by SRB assay
[5] = system: MDA-MB-231; experiment: Cytotoxicity against human MDA-MB-231 cells assessed as cellular growth at 10 uM by SRB assay
[6] = system: MCF7; experiment: Cytotoxicity against human MCF7 cells assessed as cellular growth at 10 uM by SRB assay
[7] = system: DU-145; experiment: Cytotoxicity against human DU145 cells assessed as cellular growth at 10 uM by SRB assay
[8] = system: UO-31; experiment: Cytotoxicity against human UO31 cells assessed as cellular growth at 10 uM by SRB assay
[9] = system: PC-3; experiment: Cytotoxicity against human PC3 cells assessed as cellular growth at 10 uM by SRB assay
[10] = system: TK-10; experiment: Cytotoxicity against human TK10 cells assessed as cellular growth at 10 uM by SRB assay
[11] = system: SN12C; experiment: Cytotoxicity against human SN12C cells assessed as cellular growth at 10 uM by SRB assay
[12] = system: RXF 393; experiment: Cytotoxicity against human RXF393 cells assessed as cellular growth at 10 uM by SRB assay
[13] = system: ACHN; experiment: Cytotoxicity against human ACHN cells assessed as cellular growth at 10 uM by SRB assay
[14] = system: CAKI-1; experiment: Cytotoxicity against human Caki1 cells assessed as cellular growth at 10 uM by SRB assay
[15] = system: A498; experiment: Cytotoxicity against human A498 cells assessed as cellular growth at 10 uM by SRB assay
[16] = system: 786-0; experiment: Cytotoxicity against human 786-0 cells assessed as cellular growth at 10 uM by SRB assay
[17] = system: SK-OV-3; experiment: Cytotoxicity against human SKOV3 cells assessed as cellular growth at 10 uM by SRB assay
[18] = Cytotoxicity against human NCI-ADR-RES cells assessed as cellular growth at 10 uM by SRB assay
[19] = system: OVCAR-8; experiment: Cytotoxicity against human OVCAR8 cells assessed as cellular growth at 10 uM by SRB assay
[20] = system: OVCAR-3; experiment: Cytotoxicity against human OVCAR3 cells assessed as cellular growth at 10 uM by SRB assay
[21] = system: IGROV-1; experiment: Cytotoxicity against human IGROV1 cells assessed as cellular growth at 10 uM by SRB assay
[22] = system: UACC-62; experiment: Cytotoxicity against human UACC62 cells assessed as cellular growth at 10 uM by SRB assay
[23] = system: UACC-257; experiment: Cytotoxicity against human UACC257 cells assessed as cellular growth at 10 uM by SRB assay
[24] = system: SK-MEL-5; experiment: Cytotoxicity against human SK-MEL-5 cells assessed as cellular growth at 10 uM by SRB assay
[25] = system: SK-MEL-28; experiment: Cytotoxicity against human SK-MEL-28 cells assessed as cellular growth at 10 uM by SRB assay
[26] = system: SK-MEL-2; experiment: Cytotoxicity against human SK-MEL-2 cells assessed as cellular growth at 10 uM by SRB assay
[27] = system: MDA-MB-435; experiment: Cytotoxicity against human MDA-MB-435 cells assessed as cellular growth at 10 uM by SRB assay
[28] = system: M14; experiment: Cytotoxicity against human M14 cells assessed as cellular growth at 10 uM by SRB assay
[29] = system: Malme-3M; experiment: Cytotoxicity against human MALME-3M cells assessed as cellular growth at 10 uM by SRB assay
[30] = system: LOX IMVI; experiment: Cytotoxicity against human LOXIMVI cells assessed as cellular growth at 10 uM by SRB assay
[31] = system: U-251; experiment: Cytotoxicity against human U251 cells assessed as cellular growth at 10 uM by SRB assay
[32] = system: SNB-75; experiment: Cytotoxicity against human SNB75 cells assessed as cellular growth at 10 uM by SRB assay
[33] = system: SNB-19; experiment: Cytotoxicity against human SNB19 cells assessed as cellular growth at 10 uM by SRB assay
[34] = system: SF-539; experiment: Cytotoxicity against human SF539 cells assessed as cellular growth at 10 uM by SRB assay
[35] = system: SF-295; experiment: Cytotoxicity against human SF295 cells assessed as cellular growth at 10 uM by SRB assay
[36] = system: SF-268; experiment: Cytotoxicity against human SF268 cells assessed as cellular growth at 10 uM by SRB assay
[37] = system: SW-620; experiment: Cytotoxicity against human SW620 cells assessed as cellular growth at 10 uM by SRB assay
[38] = system: KM12; experiment: Cytotoxicity against human KM12 cells assessed as cellular growth at 10 uM by SRB assay
[39] = system: HT-29; experiment: Cytotoxicity against human HT-29 cells assessed as cellular growth at 10 uM by SRB assay
[40] = system: HCT-15; experiment: Cytotoxicity against human HCT15 cells assessed as cellular growth at 10 uM by SRB assay
[41] = system: HCT-116; experiment: Cytotoxicity against human HCT116 cells assessed as cellular growth at 10 uM by SRB assay
[42] = system: HCC 2998; experiment: Cytotoxicity against human HCC2998 cells assessed as cellular growth at 10 uM by SRB assay
[43] = system: NCI-H522; experiment: Cytotoxicity against human NCI-H522 cells assessed as cellular growth at 10 uM by SRB assay
[44] = system: COLO 205; experiment: Cytotoxicity against human COLO205 cells assessed as cellular growth at 10 uM by SRB assay
[45] = system: NCI-H460; experiment: Cytotoxicity against human NCI-H460 cells assessed as cellular growth at 10 uM by SRB assay
[46] = system: NCI-H322M; experiment: Cytotoxicity against human NCI-H322M cells assessed as cellular growth at 10 uM by SRB assay
[47] = system: NCI-H226; experiment: Cytotoxicity against human NCI-H226 cells assessed as cellular growth at 10 uM by SRB assay
[48] = system: NCI-H23; experiment: Cytotoxicity against human NCI-H23 cells assessed as cellular growth at 10 uM by SRB assay
[49] = system: HOP-92; experiment: Cytotoxicity against human HOP92 cells assessed as cellular growth at 10 uM by SRB assay
[50] = system: EKVX; experiment: Cytotoxicity against human EKVX cells assessed as cellular growth at 10 uM by SRB assay
[51] = system: HOP-62; experiment: Cytotoxicity against human HOP62 cells assessed as cellular growth at 10 uM by SRB assay
[52] = system: A549; experiment: Cytotoxicity against human A549 cells assessed as cellular growth at 10 uM by SRB assay
[53] = system: MOLT-4; experiment: Cytotoxicity against human MOLT4 cells assessed as cellular growth at 10 uM by SRB assay
[54] = system: RPMI-8226; experiment: Cytotoxicity against human RPMI8226 cells assessed as cellular growth at 10 uM by SRB assay
[55] = system: K562; experiment: Cytotoxicity against human K562 cells assessed as cellular growth at 10 uM by SRB assay
[56] = system: CCRF-CEM; experiment: Cytotoxicity against human CCRF-CEM cells assessed as cellular growth at 10 uM by SRB assay
[57] = system: OVCAR-4; experiment: Cytotoxicity against human OVCAR4 cells assessed as cellular growth at 10 uM by SRB assay
[58] = system: OVCAR-5; experiment: Cytotoxicity against human OVCAR5 cells assessed as cellular growth at 10 uM by SRB assay
[59] = system: SR; experiment: Cytotoxicity against human SR cells assessed as cellular growth at 10 uM by SRB assay
[60] = system: HL-60(TB); experiment: Cytotoxicity against human HL-60(TB) cells assessed as cellular growth at 10 uM by SRB assay

Oc1ccccc1-c1nc(-c2cccs2)no1
Activity [1]: 44.64%
Activity [2]: 76.43%
Activity [3]: 92.36%
Activity [4]: 93.55%
Activity [5]: 71.74%
Activity [6]: 56.48%
Activity [7]: 114.11%
Activity [8]: 71.94%
Activity [9]: 85.02%
Activity [10]: 89.67%
Activity [11]: 90.61%
Activity [12]: 117.42%
Activity [13]: 98.95%
Activity [14]: 97.52%
Activity [15]: 105.68%
Activity [16]: 101.07%
Activity [17]: 99.86%
Activity [18]: 106.13%
Activity [19]: 102.43%
Activity [20]: 108.33%
Activity [21]: 86.9%
Activity [22]: 89.11%
Activity [23]: 96.64%
Activity [24]: 88.2%
Activity [25]: 115.6%
Activity [26]: 107.16%
Activity [27]: 112.76%
Activity [28]: 106.76%
Activity [29]: 105.64%
Activity [30]: 100.28%
Activity [31]: 89.74%
Activity [32]: 90.2%
Activity [33]: 102.55%
Activity [34]: 104.64%
Activity [35]: 109.56%
Activity [36]: 112.74%
Activity [37]: 95.69%
Activity [38]: 100.01%
Activity [39]: 111.27%
Activity [40]: 64.4%
Activity [41]: 104.63%
Activity [42]: 83.27%
Activity [43]: 96.76%
Activity [44]: 111.09%
Activity [45]: 95.65%
Activity [46]: 116.66%
Activity [47]: 93.28%
Activity [48]: 94.82%
Activity [49]: 50.86%
Activity [50]: 89.29%
Activity [51]: 88.78%
Activity [52]: 99.05%
Activity [53]: 99.05%
Activity [54]: 87.52%
Activity [55]: 96.52%
Activity [56]: 91.77%

Nc1c(C(=O)Nc2ccc(Cl)c(Cl)c2)sc2nc(-c3cccs3)ccc12
Activity [1]: 19.37%
Activity [2]: 85.21%
Activity [3]: 76.11%
Activity [4]: 129.34%
Activity [5]: 84.38%
Activity [6]: 87.77%
Activity [7]: 91.96%
Activity [8]: 83.99%
Activity [9]: 85.43%
Activity [10]: 87.49%
Activity [11]: 89.08%
Activity [12]: 92.71%
Activity [13]: 99.6%
Activity [14]: 95.41%
Activity [16]: 88.45%
Activity [17]: 105.1%
Activity [18]: 75.02%
Activity [19]: 98.27%
Activity [57]: 55.74%
Activity [58]: 94.42%
Activity [20]: 100.29%
Activity [21]: 122.32%
Activity [22]: 79.48%
Activity [23]: 91.24%
Activity [24]: 90.4%
Activity [25]: 97.42%
Activity [26]: 58.47%
Activity [27]: 83.41%
Activity [28]: 87.97%
Activity [29]: 90.04%
Activity [30]: 43.3%
Activity [31]: 83.86%
Activity [32]: 86.26%
Activity [33]: 95.32%
Activity [34]: 79.24%
Activity [35]: 106.17%
Activity [36]: 85.77%
Activity [37]: 105.33%
Activity [38]: 99.94%
Activity [39]: 87.42%
Activity [40]: 92.1%
Activity [41]: 75.19%
Activity [42]: 98.35%
Activity [43]: 81.53%
Activity [44]: 115.1%
Activity [45]: 103.53%
Activity [46]: 95.09%
Activity [47]: 96.17%
Activity [48]: 68.82%
Activity [50]: 93.39%
Activity [51]: 100.28%
Activity [52]: 54.62%
Activity [59]: 56.67%
Activity [53]: 83.49%
Activity [54]: 87.02%
Activity [55]: 86.57%
Activity [60]: 99.11%
Activity [56]: 82.99%

Source: ChEMBL document CHEMBL2202954, “The effect of PLC-γ2 inhibitors on the growth of human tumour cells” (2012)
